Test results published in patent publication US7358266B2, “Cyclopropyl and cyclobutyl epothilone analogs” (The Scripps Research Institute, priority 2001, dated 2008).
“Also recorded” adds a separate entry of the source.

Key:
[1] = test system: PTX10 (β270) paclitaxel-selected β-tubulin mutant clone of 1A9; assay: 72 h growth inhibition assay (SRB), paclitaxel-selected clone PTX10; format: cell-based, human
Description: (§1) The biological activities of the synthesized epothilones were evaluated through cytotoxicity and tubulin polymerization assays. Cytotoxicity was first evaluated in a set of ovarian carcinoma cell lines, including a parental cell line (IA9) and three drug-resistant cell lines, namely the paclitaxel-resistant cell lines (Giannakakou, P.; et al. J. Biol. Chem. 1997, 272, 17118-17125) IA9/PTX10 and IA9/PTX22 and the epothilone-resistant cell line (Giannakakou, P.; et al. Proc. Natl. Acad. Sci. USA 2000, 97, 2904-2909) 1A9/A8. These resistant cell lines harbor distinct acquired P-tubulin mutations which affect drug-tubulin interaction and result in impaired taxane and epothilone-driven tubulin polymerization. Further cytotoxicity studies were undertaken using a set of human epidermoid cancer cell lines, including a parent cell line (KB-31), and a paclitaxel-resistant (due to P-gp overexpression) cell line (KB-8511).
(§2) IC50 values for each compound are given in nM and represent the mean of 3-5 independent experiments±standard error of the mean. Relative resistance (RR) is calculated as an IC50 value for each resistant subline divided by that for the parental cell line (1A9).^b Data from reference 3. CP=cyclopropyl, CB=cyclobutyl, na=not applicable, nd=not determined, py=5-methylpyridine side chain.

[2] = test system: A8 (β274) epothilone-selected β-tubulin mutant clone of 1A9; assay: 72 h growth inhibition assay (SRB), epothilone-selected clone A8; format: cell-based, human
Description: as §1, §2

[3] = test system: ovarian carcinoma (1A9, PTX10, PTX22, A8) and epidermoid (KB-31, KB-8511) cancer cell lines; assay: Cytotoxicity, general statements over the cell line panel; format: cell-based, human; conditions: for cytotoxic activity (in words): cell line not specified or all cell lines
Description: as §1, §2
(§3) FIG. 16 is a table of tubulin polymerization potency^a and cytotoxicity^b of epothilones 1 through 12 and paclitaxel against human epidermoid cancer cell lines.^a% TP=percent tubulin polymerized after incubation of tubulin with a known concentration of compound (typically 3 μM).^b Cytotoxicity towards human cancer cell lines as IC50 values given in nM. KB-31: epidermoid Taxol®-sensitive, KB-8511: epidermoid Taxol®-resistant (due to P-gp over expression).

tubulin = assay: In vitro tubulin polymerization, fraction of tubulin polymerized (% TP); format: biochemical
Description: (§4) The cytotoxicity analysis was supplemented with data from two independent in vitro tubulin polymerization assays. In one assay, the fraction of tubulin polymerized into microtubules upon exposure to a given concentration of the respective compound was determined (see Table 2). In the other assay, tubulin polymerization kinetics upon exposure to the respective compounds was determined using purified rat brain tubulin through measurement of the absorbance at 350 nm (see FIG. 3). For this analysis, paclitaxel, epothilone A (1) and epothilone B (2) were used as controls while compounds 9, 11 and 12 were selected for in vitro analysis.
as §3

[4] = test system: purified rat brain tubulin; assay: Tubulin polymerization kinetics, absorbance at 350 nm; format: biochemical; conditions: for in vitro tubulin polymerization activity (in words) / maximum degree of tubulin polymerization compared with epothilone A (1): A350
Description: as §4

[5] = test system: 1A9 human ovarian carcinoma cells; assay: 72 h growth inhibition assay (SRB), parental 1A9 cells; format: cell-based
Description: as §1, §2

[6] = test system: KB-31 human epidermoid cancer cell line (Taxol-sensitive); assay: Cytotoxicity against human epidermoid cancer cell line KB-31; format: cell-based; conditions: parental sensitive KB-31 cells; 3 compared with epothilone A (1)
Description: as §1, §3

[7] = test system: PTX22 (β364) paclitaxel-selected β-tubulin mutant clone of 1A9; assay: 72 h growth inhibition assay (SRB), paclitaxel-selected clone PTX22; format: cell-based; conditions: Homo sapiens, read-out: IC50 against PTX22
Description: as §1, §2

Compound	activity against clone PTX10 versus parental line (in words) [1]	activity against clone A8 versus parental line (in words) [2]	cytotoxic activity (in words) [3]	tubulin polymerization promotion (in words) (tubulin)	time to A350=0.25 ([4]; polymerization kinetics) [min]	inhibition of 1A9 cell growth (in words) ([5]; parental sensitive 1A9 cells, 3 compared with epothilone A (1))	inhibition of KB-31 cell growth (in words) [6]	factor less active than 11 ([3]; cytotoxicity relative to analog 11)	in vitro tubulin polymerization activity (in words) [4]	maximum degree of tubulin polymerization compared with epothilone A (1) [4]	IC50 ([5]; Homo sapiens, Ovarian carcinoma cell, 1A9, 72 h, SRB, read-out: IC50 in the 1A9 human ovarian carcinoma cell line) [nM]	IC50 ([1]; Homo sapiens, 72 h, SRB, read-out: IC50 against PTX10) [nM]	IC50 [7] [nM]	IC50 ([2]; Homo sapiens, 72 h, SRB, read-out: IC50 against A8) [nM]
15S-cyclobutyl epothilone A [Compound 4]	lose some activity	lose some activity	retains good activity; also recorded: cytotoxic agents	potent tubulin polymerization promoters	–	–	–	–	–	–	–	–	–	–
C/C(=C\c1csc(C)n1)[C@@H]1C[C@@H]2O[C@@H]2CCC[C@H](C)[C@H](O)[C@@H](C)C(=O)C(C)(C)[C@@H](O)CC(=O)O1 [Compound 1, epothilone A]	–	–	–	–	2	–	–	–	–	–	–	–	–	–
C/C(=C\c1csc(C)n1)[C@@H]1C[C@@H]2C[C@@H]2CCC[C@H](C)[C@H](O)[C@@H](C)C(=O)C(C)(C)[C@@H](O)CC(=O)O1 [Compound 3, cyclopropyl epothilone A]	lose some activity	lose some activity	cytotoxic agents	potent tubulin polymerization promoters	–	slightly more potently	slightly more potently	–	–	–	–	–	–	–
C/C(=C\c1ccc(C)cn1)[C@@H]1C[C@@H]2C[C@@H]2CCC[C@H](C)[C@H](O)[C@@H](C)C(=O)C(C)(C)[C@@H](O)CC(=O)O1 [Compound 9]	lose some activity	lose some activity	highly active; also recorded: increased cytotoxic activity; also recorded: cytotoxic agents	potent tubulin polymerization promoters	–	–	–	three to five	good in vitro activity	smaller	–	–	–	–
C/C(=C\c1ccc(C)cn1)[C@@H]1C[C@@H]2C[C@H]2CCC[C@H](C)[C@H](O)[C@@H](C)C(=O)C(C)(C)[C@@H](O)CC(=O)O1 [Compound 11, (12R, 13S, 15S)-cyclopropyl 5-methylpyridine epothilone A]	lose some activity	lose some activity	outstanding activity; also recorded: increased cytotoxic activity; also recorded: cytotoxic agents	potent tubulin polymerization promoters	–	–	–	–	good in vitro activity	smaller	0.6	< 10	< 10	< 10
